# Measured values as given in ChEMBL document CHEMBL3132823, “Novel radioiodinated 1,3,4-oxadiazole derivatives with improved in vivo properties for SPECT imaging of -amyloid plaques” (Medchemcomm, 2014).
# pKi: −log10 of the molar value. Activity calls are given as the source filed them. The calls are words filed in the database; no cut-off is given here.
# Legend:
# Brain [1] = assay: Biodistribution in iv dosed ddY mouse brain measured per gram of tissue after 60 mins by automatic gamma counting; format: ADME, organism-based; conditions: in vivo, 1 h
# Stomach [2] = assay: Biodistribution in iv dosed ddY mouse stomach measured per organ after 60 mins by automatic gamma counting; format: ADME, organism-based; conditions: in vivo, 1 h
# Heart [3] = assay: Biodistribution in iv dosed ddY mouse heart measured per gram of tissue after 60 mins by automatic gamma counting; format: ADME, organism-based; conditions: in vivo, 1 h
# Pancreas [4] = assay: Biodistribution in iv dosed ddY mouse pancreas measured per gram of tissue after 60 mins by automatic gamma counting; format: ADME, organism-based; conditions: in vivo, 1 h
# Blood [5] = assay: Biodistribution in iv dosed ddY mouse blood measured per gram of tissue after 2 mins by automatic gamma counting; format: ADME, organism-based; conditions: in vivo
# Liver [6] = assay: Biodistribution in iv dosed ddY mouse liver measured per gram of tissue after 2 mins by automatic gamma counting; format: ADME, organism-based; conditions: in vivo
# Kidney [7] = assay: Biodistribution in iv dosed ddY mouse kidney measured per gram of tissue after 2 mins by automatic gamma counting; format: ADME, organism-based; conditions: in vivo
# Intestine [8] = assay: Biodistribution in iv dosed ddY mouse intestine measured per gram of tissue after 2 mins by automatic gamma counting; format: ADME, organism-based; conditions: in vivo
# Spleen [9] = assay: Biodistribution in iv dosed ddY mouse spleen measured per gram of tissue after 2 mins by automatic gamma counting; format: ADME, organism-based; conditions: in vivo
# Pancreas [10] = assay: Biodistribution in iv dosed ddY mouse pancreas measured per gram of tissue after 2 mins by automatic gamma counting; format: ADME, organism-based; conditions: in vivo
# Heart [11] = assay: Biodistribution in iv dosed ddY mouse heart measured per gram of tissue after 2 mins by automatic gamma counting; format: ADME, organism-based; conditions: in vivo
# Stomach [12] = assay: Biodistribution in iv dosed ddY mouse stomach measured per organ after 2 mins by automatic gamma counting; format: ADME, organism-based; conditions: in vivo
# Brain [13] = assay: Biodistribution in iv dosed ddY mouse brain measured per gram of tissue after 2 mins by automatic gamma counting; format: ADME, organism-based; conditions: in vivo
# Blood [14] = assay: Biodistribution in iv dosed ddY mouse blood measured per gram of tissue after 10 mins by automatic gamma counting; format: ADME, organism-based; conditions: in vivo
# Liver [15] = assay: Biodistribution in iv dosed ddY mouse liver measured per gram of tissue after 10 mins by automatic gamma counting; format: ADME, organism-based; conditions: in vivo
# Kidney [16] = assay: Biodistribution in iv dosed ddY mouse kidney measured per gram of tissue after 10 mins by automatic gamma counting; format: ADME, organism-based; conditions: in vivo
# Intestine [17] = assay: Biodistribution in iv dosed ddY mouse intestine measured per gram of tissue after 10 mins by automatic gamma counting; format: ADME, organism-based; conditions: in vivo
# Spleen [18] = assay: Biodistribution in iv dosed ddY mouse spleen measured per gram of tissue after 10 mins by automatic gamma counting; format: ADME, organism-based; conditions: in vivo
# Pancreas [19] = assay: Biodistribution in iv dosed ddY mouse pancreas measured per gram of tissue after 10 mins by automatic gamma counting; format: ADME, organism-based; conditions: in vivo
# Heart [20] = assay: Biodistribution in iv dosed ddY mouse heart measured per gram of tissue after 10 mins by automatic gamma counting; format: ADME, organism-based; conditions: in vivo
# Stomach [21] = assay: Biodistribution in iv dosed ddY mouse stomach measured per organ after 10 mins by automatic gamma counting; format: ADME, organism-based; conditions: in vivo
# Brain [22] = assay: Biodistribution in iv dosed ddY mouse brain measured per gram of tissue after 10 mins by automatic gamma counting; format: ADME, organism-based; conditions: in vivo
# Blood [23] = assay: Biodistribution in iv dosed ddY mouse blood measured per gram of tissue after 30 mins by automatic gamma counting; format: ADME, organism-based; conditions: in vivo, 0.5 h
# Liver [24] = assay: Biodistribution in iv dosed ddY mouse liver measured per gram of tissue after 30 mins by automatic gamma counting; format: ADME, organism-based; conditions: in vivo, 0.5 h
# Kidney [25] = assay: Biodistribution in iv dosed ddY mouse kidney measured per gram of tissue after 30 mins by automatic gamma counting; format: ADME, organism-based; conditions: in vivo, 0.5 h
# Intestine [26] = assay: Biodistribution in iv dosed ddY mouse intestine measured per gram of tissue after 30 mins by automatic gamma counting; format: ADME, organism-based; conditions: in vivo, 0.5 h
# Spleen [27] = assay: Biodistribution in iv dosed ddY mouse spleen measured per gram of tissue after 30 mins by automatic gamma counting; format: ADME, organism-based; conditions: in vivo, 0.5 h
# Pancreas [28] = assay: Biodistribution in iv dosed ddY mouse pancreas measured per gram of tissue after 30 mins by automatic gamma counting; format: ADME, organism-based; conditions: in vivo, 0.5 h
# Heart [29] = assay: Biodistribution in iv dosed ddY mouse heart measured per gram of tissue after 30 mins by automatic gamma counting; format: ADME, organism-based; conditions: in vivo, 0.5 h
# Stomach [30] = assay: Biodistribution in iv dosed ddY mouse stomach measured per organ after 30 mins by automatic gamma counting; format: ADME, organism-based; conditions: in vivo, 0.5 h
# Brain [31] = assay: Biodistribution in iv dosed ddY mouse brain measured per gram of tissue after 30 mins by automatic gamma counting; format: ADME, organism-based; conditions: in vivo, 0.5 h
# Blood [32] = assay: Biodistribution in iv dosed ddY mouse blood measured per gram of tissue after 60 mins by automatic gamma counting; format: ADME, organism-based; conditions: in vivo, 1 h
# Liver [33] = assay: Biodistribution in iv dosed ddY mouse liver measured per gram of tissue after 60 mins by automatic gamma counting; format: ADME, organism-based; conditions: in vivo, 1 h
# Kidney [34] = assay: Biodistribution in iv dosed ddY mouse kidney measured per gram of tissue after 60 mins by automatic gamma counting; format: ADME, organism-based; conditions: in vivo, 1 h
# Intestine [35] = assay: Biodistribution in iv dosed ddY mouse intestine measured per gram of tissue after 60 mins by automatic gamma counting; format: ADME, organism-based; conditions: in vivo, 1 h
# Spleen [36] = assay: Biodistribution in iv dosed ddY mouse spleen measured per gram of tissue after 60 mins by automatic gamma counting; format: ADME, organism-based; conditions: in vivo, 1 h
# Plasma = assay: Metabolic stability in mouse plasma at 11 kBq after 1 hr at 37 degC by HPLC analysis; format: ADME, cell-free
# Mus musculus [37] = assay: In vivo binding affinity to amyloid beta plaques in iv dosed wild type mouse brain at 44 to 48 MBq after 20 to 80 mins by SPECT study; format: functional, organism-based; conditions: 44 to 48 M, tested as the 125I-labelled form
# Mus musculus [38] = assay: In vivo binding affinity to amyloid beta plaques in iv dosed Tg2576 transgenic mouse brain at 44 to 48 MBq after 20 to 80 mins by SPECT study; format: functional, organism-based; conditions: 44 to 48 M, tested as the 125I-labelled form
# Mus musculus [39] = assay: In vivo binding affinity to amyloid beta plaques in iv dosed wild type mouse brain after 70 mins by autoradiography analysis; format: functional, organism-based; conditions: tested as the 125I-labelled form
# Mus musculus [40] = assay: In vivo binding affinity to amyloid beta plaques in iv dosed Tg2576 transgenic mouse brain after 70 mins by autoradiography analysis; format: functional, organism-based; conditions: tested as the 125I-labelled form
# [41] = Octanol-phosphate buffer partition coefficient, log p of the compound at pH 7.4 by automatic gamma counting; format: physicochemical
# [42] = biological target: T1, Amyloid-beta precursor protein (Homo sapiens, UniProt P05067); assay: Inhibition of [125I]IMPY binding to amyloid beta (1 to 42) aggregates (unknown origin) by gamma counting
# [43] = biological target: T1, Amyloid-beta precursor protein; assay: In vitro binding affinity to amyloid beta plaques in human AD brain at 148 kBq after 1 hr incubation at room temperature by autoradiography analysis; conditions: tested as the 125I-labelled form
# T1 sequence (P05067 whole entry): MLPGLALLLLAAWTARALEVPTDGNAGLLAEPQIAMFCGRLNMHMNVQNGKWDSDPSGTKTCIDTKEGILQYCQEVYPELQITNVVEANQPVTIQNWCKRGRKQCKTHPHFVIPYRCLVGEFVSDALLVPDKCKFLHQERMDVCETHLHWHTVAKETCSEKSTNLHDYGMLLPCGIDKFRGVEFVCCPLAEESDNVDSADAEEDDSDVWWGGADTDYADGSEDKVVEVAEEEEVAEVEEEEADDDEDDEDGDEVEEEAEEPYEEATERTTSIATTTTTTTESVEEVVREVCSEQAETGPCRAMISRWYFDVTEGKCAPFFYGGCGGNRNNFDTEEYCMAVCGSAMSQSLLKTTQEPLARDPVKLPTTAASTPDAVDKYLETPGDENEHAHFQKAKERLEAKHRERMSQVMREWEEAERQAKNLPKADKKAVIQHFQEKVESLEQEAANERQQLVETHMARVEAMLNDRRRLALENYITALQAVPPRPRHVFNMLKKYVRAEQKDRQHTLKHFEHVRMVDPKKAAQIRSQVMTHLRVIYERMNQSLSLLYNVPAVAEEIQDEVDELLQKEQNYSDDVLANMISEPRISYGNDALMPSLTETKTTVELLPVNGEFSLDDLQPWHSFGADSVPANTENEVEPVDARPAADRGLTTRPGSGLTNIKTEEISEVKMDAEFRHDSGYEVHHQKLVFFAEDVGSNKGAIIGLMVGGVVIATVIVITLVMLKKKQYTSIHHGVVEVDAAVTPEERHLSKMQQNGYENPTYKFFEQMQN
smiles,measurement,setting,value
CN(C)c1ccc(-c2nnc(-c3ccc([125I])cc3)o2)cn1,Drug uptake,Brain [1],0.4 %ID
same,Drug uptake,Stomach [2],10.24 %ID
same,Drug uptake,Heart [3],1.13 %ID
same,Drug uptake,Pancreas [4],1.27 %ID
same,Drug uptake,Blood [5],1.93 %ID
same,Drug uptake,Liver [6],6.41 %ID
same,Drug uptake,Kidney [7],6.43 %ID
same,Drug uptake,Intestine [8],1.5 %ID
same,Drug uptake,Spleen [9],2.97 %ID
same,Drug uptake,Pancreas [10],4.92 %ID
same,Drug uptake,Heart [11],4.48 %ID
same,Drug uptake,Stomach [12],0.91 %ID
same,Drug uptake,Brain [13],3.88 %ID
same,Drug uptake,Blood [14],2.33 %ID
same,Drug uptake,Liver [15],7.44 %ID
same,Drug uptake,Kidney [16],4.61 %ID
same,Drug uptake,Intestine [17],3.38 %ID
same,Drug uptake,Spleen [18],3.01 %ID
same,Drug uptake,Pancreas [19],3.07 %ID
same,Drug uptake,Heart [20],2.15 %ID
same,Drug uptake,Stomach [21],2.49 %ID
same,Drug uptake,Brain [22],3.03 %ID
same,Drug uptake,Blood [23],1.97 %ID
same,Drug uptake,Liver [24],3.86 %ID
same,Drug uptake,Kidney [25],2.96 %ID
same,Drug uptake,Intestine [26],5.29 %ID
same,Drug uptake,Spleen [27],1.72 %ID
same,Drug uptake,Pancreas [28],1.67 %ID
same,Drug uptake,Heart [29],1.31 %ID
same,Drug uptake,Stomach [30],7.25 %ID
same,Drug uptake,Brain [31],1.05 %ID
same,Drug uptake,Blood [32],1.79 %ID
same,Drug uptake,Liver [33],2.61 %ID
same,Drug uptake,Kidney [34],2.99 %ID
same,Drug uptake,Intestine [35],8.57 %ID
same,Drug uptake,Spleen [36],1.74 %ID
same,Stability,Plasma,Stable
CN(C)c1ccc(-c2nnc(-c3cccc(I)c3)o2)cn1,Activity,Mus musculus [37],inactive
same,Activity,Mus musculus [38],Active
same,Activity,Mus musculus [39],inactive
same,Activity,Mus musculus [40],Active
same,logD,[41],2.06
same,pKi,[42],7.87
same,inhibition,[42],Dose-dependent effect
same,Activity,[43],Active
CN(C)c1ccc(-c2nnc(-c3ccc(I)cc3)o2)cn1,Activity,Mus musculus [39],inactive
same,Activity,Mus musculus [40],Active
same,logD,[41],2.06
same,pKi,[42],7.61
same,inhibition,[42],Dose-dependent effect
same,Activity,[43],Active
CN(C)c1ccc(-c2nnc(-c3ccc(I)cc3)o2)cc1,pKi,[42],8.41
CN(C)c1ccc(-c2nnc(-c3cccc([125I])c3)o2)cn1,Drug uptake,Brain [1],0.48 %ID
same,Drug uptake,Stomach [2],7.9 %ID
same,Drug uptake,Heart [3],1.14 %ID
same,Drug uptake,Pancreas [4],1.28 %ID
same,Drug uptake,Blood [5],1.82 %ID
same,Drug uptake,Liver [6],6.06 %ID
same,Drug uptake,Kidney [7],8.85 %ID
same,Drug uptake,Intestine [8],2.28 %ID
same,Drug uptake,Spleen [9],2.67 %ID
same,Drug uptake,Pancreas [10],5.15 %ID
same,Drug uptake,Heart [11],5.76 %ID
same,Drug uptake,Stomach [12],0.86 %ID
same,Drug uptake,Brain [13],4.12 %ID
same,Drug uptake,Blood [14],1.65 %ID
same,Drug uptake,Liver [15],11.5 %ID
same,Drug uptake,Kidney [16],4.59 %ID
same,Drug uptake,Intestine [17],4.08 %ID
same,Drug uptake,Spleen [18],1.74 %ID
same,Drug uptake,Pancreas [19],2.46 %ID
same,Drug uptake,Heart [20],2.39 %ID
same,Drug uptake,Stomach [21],2.01 %ID
same,Drug uptake,Brain [22],2.63 %ID
same,Drug uptake,Blood [23],1.67 %ID
same,Drug uptake,Liver [24],8.42 %ID
same,Drug uptake,Kidney [25],2.95 %ID
same,Drug uptake,Intestine [26],8.77 %ID
same,Drug uptake,Spleen [27],1.39 %ID
same,Drug uptake,Pancreas [28],1.56 %ID
same,Drug uptake,Heart [29],1.27 %ID
same,Drug uptake,Stomach [30],5.67 %ID
same,Drug uptake,Brain [31],0.87 %ID
same,Drug uptake,Blood [32],1.76 %ID
same,Drug uptake,Liver [33],5.94 %ID
same,Drug uptake,Kidney [34],2.3 %ID
same,Drug uptake,Intestine [35],12.08 %ID
same,Drug uptake,Spleen [36],1.21 %ID
same,Stability,Plasma,Stable
